Measured values reported in publication PMC2693460 (Cancer chemotherapy and pharmacology, 2009).

Target: T1, ABCG2 (Homo sapiens, UniProt Q9UNQ0)
T1 sequence (Q9UNQ0 1-655): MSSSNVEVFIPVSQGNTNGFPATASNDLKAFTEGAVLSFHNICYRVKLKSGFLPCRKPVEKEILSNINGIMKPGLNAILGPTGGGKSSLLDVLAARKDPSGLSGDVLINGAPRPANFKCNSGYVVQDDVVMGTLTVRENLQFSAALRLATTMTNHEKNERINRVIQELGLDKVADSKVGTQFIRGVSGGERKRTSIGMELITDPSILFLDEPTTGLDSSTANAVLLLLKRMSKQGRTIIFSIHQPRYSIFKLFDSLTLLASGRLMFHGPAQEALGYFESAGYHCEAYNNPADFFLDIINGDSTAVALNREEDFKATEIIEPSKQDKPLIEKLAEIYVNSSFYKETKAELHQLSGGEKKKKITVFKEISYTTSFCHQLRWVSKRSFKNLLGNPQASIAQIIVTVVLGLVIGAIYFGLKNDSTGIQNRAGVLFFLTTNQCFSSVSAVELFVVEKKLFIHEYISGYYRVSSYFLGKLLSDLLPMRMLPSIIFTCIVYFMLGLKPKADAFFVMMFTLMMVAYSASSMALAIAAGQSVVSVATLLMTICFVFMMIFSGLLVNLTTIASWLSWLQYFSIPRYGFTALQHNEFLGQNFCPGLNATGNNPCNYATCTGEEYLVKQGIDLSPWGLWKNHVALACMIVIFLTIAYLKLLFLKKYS
Type: binding

IC50: 2.1 µM
Structure (SMILES): CCN(CC)CCN1C(=O)c2c(c3c4cccc(Cl)c4n([C@@H]4O[C@H](CO)[C@@H](OC)[C@H](O)[C@H]4O)c3c3[nH]c4c(Cl)cccc4c23)C1=O [becatecarin]
